Experimental data published in article PMC9054876 (Cancer Chemotherapy and Pharmacology, 2022).

What was measured:
[1] = cited from earlier work
clinical [2] = settings: for CLpar: typical individual, 500 mg
Description: This step included food status, formulation, and oral dose level.
In the second step, the remaining covariates were further evaluated, including demographics (age, body weight, race, and sex), patient characteristics (disease status, i.e., patient or healthy participant, tumor type, National Cancer Institute Organ Dysfunction Working Group [NCI-ODWG] classification of liver impairment, and baseline tumor burden), laboratory values (serum albumin, total bilirubin, alkaline phosphatase, international normalized ratio, and total protein), and co-medications (opioid analgesics and gefitinib).
SCM was applied in the structural covariate model building step, followed by an adaptive scope reduction (ASR) SCM in the following covariate searching step to reduce run times. For the SCM procedures, the forward selection p value was set to 0.01, and the backward elimination p value to 0.001. The ASR threshold p value was set to the same as the forward p value of 0.01.
Continuous covariate relationships were coded as power models (Formula 1), and categorical covariates were coded as a fractional difference to the most common category (Formula 2). An alternative ‘hockey-stick’ parameterization (Formula 3) was tested for dose as continuous covariate on bioavailability of the parent drug (Par).1 ParCovm=Cov/Covref^θm 2 ParCovm=1ifCov=Covref1+θmifCov≠Covref 3 ParCovm=1+θm1·Cov-CovrefifCov≤Covref1+θm2·Cov-CovrefifCov>Covref
Model selection and qualification was based on the changes in the objective function value (OFV) provided by NONMEM and the visual inspection of graphical diagnostics, including goodness-of-fit plots and visual predictive checks (VPCs).
The population PK analyses were performed using NONMEM version 7.3.0. Data management and further processing of NONMEM output were performed using R version 3.3.3. VPCs and covariate model building were run on PsN version 4.4.8.
The IIV terms are included on CLpar, first-order absorption rate constant (ka), zero-order absorption duration (D1), and bioavailability of parent drug (Fpar).

[3] = cited from earlier work; remark: listed apart in the source
[4] = set-up: method as in PMID 32562690; settings: cited from earlier work
[5] = set-up: method as in manuscript in preparation; settings: 500 mg single dose TF2, non-compartmental analysis; ref manuscript in preparation; cited from earlier work
[6] = high-fat meal, healthy participants; cited from earlier work
clinical [7] = settings: human, in vivo, po
Description: (§1) The association or lack of association between the observed covariates and model-derived secondary PK parameters [e.g., area under the concentration–time curve over the dosing interval at steady state (AUCτ,ss)] for patients with cancer was illustrated using bootstrap analysis-based forest plots (see ESM 1 for method details). In the bootstrap analysis, N = 100 new data sets were generated with replacement from the analysis data set. The sampling was stratified by study, and the final models were fit to each of the resampled data sets. […] For categorical covariates, the mean and its 5th and 95th percentiles of PK parameters for each category were computed. For continuous covariates, the mean and its 5th and 95th percentiles of PK parameters, corresponding to the 0–5th and 95–100th percentile of the covariate, were computed. The impact of the covariates in the forest plots were presented on a relative scale. The reference value was the arithmetic mean of the corresponding PK parameter.
(§2) The derivation of these secondary PK parameters is based on a bootstrap analysis (see following). Only participants with at least one observation above the lower limit of quantitation in the analysis data set were included in the derivation of the secondary parameters.
(§3) In the bootstrap analysis, N = 100 new data sets (with the participants in the analysis data sets with at least one observation with the same number of participants as in the analysis data sets) were drawn with replacement from the analysis data sets. The sampling was stratified by study. The final models were fit to each of the resampled data sets.
(§4) For each of the N = 100 population parameter vectors, the n observed covariate vectors were used to predict the corresponding n primary and secondary parameters, where n = the unique combination of ID and the time-varying variables formulation, μ-opioids and dose (while National Cancer Institute Organ Dysfunction Group (NCI-ODG) class was handled as a time-varying covariate in the stepwise covariate method (SCM), its baseline value was used in the derivation of the forest plots since NCI-ODG class is derived from total bilirubin, alanine aminotransferase and aspartate aminotransferase, which were also assumed to be time-constant in the forest plot).
(§5) Descriptive statistics (mean, standard deviation and the 5th and 95th percentiles) were calculated for the n secondary parameters. These summary statistics are the bootstrap estimates of the typical individual value, standard error, and 90% confidence interval of the secondary parameters.

[8] = oral, cited from earlier work
[9] = Bootstrap-derived secondary PK parameters, forest plots and model-based simulation
Description: as §1, §2, §3, §4, §5

[10] = CF1 vs typical participant taking TF2 with a non-high-fat meal
[11] = fasting vs typical participant taking TF2 with a non-high-fat meal
[12] = final model, reference patient, multiplied by 0.9
[13] = fractional difference to reference category
[14] = bootstrap predicted, cancer patients
[15] = bootstrap predicted, cancer patients, 250 mg/day

COc1cc2ncnc(Nc3ccc(F)c(Cl)c3)c2cc1OCCCN1CCOCC1 [gefitinib, reference compound]
effect of co-administration of tepotinib with gefitinib on exposure [1]: no effect

CN1CCC(COc2cnc(-c3cccc(Cn4nc(-c5cccc(C#N)c5)ccc4=O)c3)nc2)CC1 [Tepotinib]
CF1 covariate on ka (clinical [2]; CF1 vs TF2): –0.442 | reduction of Fpar (clinical [2]; [10]): 65.6% | reduction of ka (clinical [2]; [10]): 44.2% | TF1* covariate on ka (clinical [2]; TF1* (finely micronized) vs TF2): 0.674 | TF1 covariate on ka (clinical [2]; TF1 vs TF2): 0.305 | TF3 covariate on Fpar (clinical [2]; TF3 vs TF2): 0.154 | CF1 covariate on Fpar (clinical [2]; capsule formulation 1 (non-micronized) vs TF2): –0.656 | influence of gefitinib co-administration on tepotinib PK (clinical [2]; covariate analysis): No statistically significant influence | reduction of Fpar (clinical [2]; [11]): 20.9% | reduction of ka (clinical [2]; [11]): 56.1% | DOSE covariate on Fpar (clinical [2]; final model): –0.0412 /100 mg | D1 (zero-order absorption duration) (clinical [2]; final model, reference patient): 4.09 h | CLpar/F (apparent clearance) (clinical [2]; final model, reference patient, 500 mg TF2, fed non-high-fat meal, multiplied by 0.9 for salt to base): 20.4 L/h | ka (first-order absorption rate constant) (clinical [2]; final model, reference patient, TF2, fed non-high-fat meal): 0.278 h⁻¹ | Qpar/F (clinical [2]; [12]): 1.32 L/h | Vp,par/F (clinical [2]; [12]): 1180 L | Vc,par/F (clinical [2]; final model, reference patient, multiplied by 0.9 for salt to base): 1020 L | Colorectal cancer covariate on CLpar/F (clinical [2]; fractional difference): –0.281 | Hepatocellular carcinoma covariate on CLpar/F (clinical [2]; fractional difference): 0.130 | NCI-ODG class > 0 covariate on Fpar (clinical [2]; fractional difference): –0.0729 | Non-small cell lung cancer covariate on Vc,par/F (clinical [2]; fractional difference): –0.232 | Patient/participant covariate on Vp,par/F (clinical [2]; fractional difference): –0.810 | Study MS200095-0028 covariate on CLpar/F (clinical [2]; fractional difference): –0.115 | μ-Opioids covariate on CLpar/F (clinical [2]; fractional difference): –0.167 | Fasting state covariate on D1 (clinical [2]; [13]): –0.370 | Fasting state covariate on Fpar (clinical [2]; [13]): –0.209 | Fasting state covariate on ka (clinical [2]; [13]): –0.561 | High-fat meal covariate on Fpar (clinical [2]; [13]): 0.320 | half-life (clinical [2]; human, in vivo): ~32 h | exposure increase between 500 and 1400 mg (clinical [2]; mostly CF2, Study 001): doubling | reduction of bioavailability by liver dysfunction (NCI-ODWG) (clinical [2]; oral administration): 7.29% | Age covariate on Vc,par/F (clinical [2]; power model): 0.219 | Body weight at baseline covariate on Fpar (clinical [2]; power model): –0.475 | INR at baseline covariate on Qpar/F (clinical [2]; power model): 3.81 | Serum albumin at baseline covariate on Qpar/F (clinical [2]; power model): 4.14 | eGFR at baseline covariate on CLpar/F (clinical [2]; power model): 0.199 | time dependence of PK (clinical [2]; single dose vs steady state): time-independent | CLpar (clinical [2]; eGFR 30 mL/min/1.73 m^2): 16.2 L/h | CLpar (clinical [2]; eGFR 60 mL/min/1.73 m^2): 18.6 L/h | CLpar (clinical [2]; eGFR 80 mL/min/1.73 m^2): 19.7 L/h | CLpar (clinical [2]; eGFR 110 mL/min/1.73 m^2): 20.9 L/h | dose proportionality of PK (clinical [2]; up to the therapeutic dose of 500 mg): approximately dose-proportional | share of administered dose of any single metabolic pathway ([3]; based on in vitro studies and human mass balance data): ≤ 25% | absolute bioavailability [3]: 72% | contribution to total circulating radioactivity [3]: 55% | total radiolabeled material excreted via feces ([3]; mass balance study): 77.9% | urinary excretion recovery ([3]; mass balance study): 13.6% | solubility [4]: low-solubility | total plasma AUC lower in moderate hepatic impairment than healthy participants [5]: 13% | increase in tepotinib exposure in the presence of food [6]: two-fold | effect of co-administration of tepotinib with gefitinib on exposure [1]: no effect | AUC (clinical [7]; 250 mg/day): 12300 ng·h/mL | half-life (clinical [7]; 500 mg): 102 h | AUC (clinical [7]; 500 mg/day): 22300 ng·h/mL | Cmax (clinical [7]; 500 mg/day): 1240 ng/mL | time to maximum concentration (Tmax) ([8]; steady state, fed conditions): approximately 8 h | terminal elimination half-life [8]: approximately 32 h | CLpar, mean ([9]; bootstrap predicted typical individual, cancer patients, multiplied by 0.9): 19.3 L/h | Fpar actual doses, mean [9, 14]: 1.12 | Tss (time to steady-state), mean [9, 14]: 128.3 h | t1/2eff (effective half-life), mean [9, 14]: 32.1 h | Fpar 250 mg, mean ([9]; bootstrap predicted, cancer patients, 250 mg): 1.04 | C max, ss 250 mg, mean [9, 15]: 683 ng/mL | Ctrough,ss 250 mg, mean [9, 15]: 523 ng/mL | Fpar 500 mg, mean ([9]; bootstrap predicted, cancer patients, 500 mg): 0.94 | Ctrough,ss 500 mg, mean ([9]; bootstrap predicted, cancer patients, 500 mg/day): 952 ng/mL | Vss, mean ([9]; bootstrap predicted, cancer patients, multiplied by 0.9): 2,091 L | AUCτ,ss higher in moderate renal impairment ([9]; eGFR 39.4-59 vs mean observed eGFR 99.8 mL/min/1.73 m^2, forest plot): 2% | effect of covariates on tepotinib AUC ([9]; race, hepatic impairment, renal impairment, age, sex, body weight, opioid analgesics or gefitinib, 90% CIs within 80–125%): no or marginal effects
